Legend:
[1] = target: T1, cold extract from Neonothopanus nambi (Neonothopanus nambi, UniProt A0A3G9K5C8); test: Bioluminescent test of hot-extract HPLC fractions with cold extract and NADPH; type: biochemical; settings: cold extract from N. nambi, NADPH; values normalised against optical density at 360 nm
T1 construct: an extract comprising the enzymes of the fungal bioluminescent system and free from low-molecular-weight components; from tissue; host or cells: Neonothopanus nambi mycelium, crude cold extract (30000 g supernatant of the homogenate)
Experimental: The obtained extracts were tested in a bioluminescent test described by Oliveira and Stevani (Photochem. Photobiol. Sci., 2009, 8, 1416) using a cold extract from Neonothopanus nambi.
In order to obtain a cold extract, the mycelium was washed to get rid of culture medium, then, it was put into a 200-fold amount of distilled water for 15 hours at 26° C. Thereafter, the mycelium was separated from water by centrifugation, then, it was homogenized on ice in 10 volumes of 0.2 M phosphate buffer, pH 7.5 and sonicated on ice for 10 minutes using Ultrasonic disintegrator UD-20. The homogenate was centrifuged at 30000 g at […] for 20 minutes. The obtained cold extract was stored at −20° C.
500 μl of the following components were mixed for a bioluminescent test: 25 μL of cold extract, 2 μL of hot extract, 442 μL 0.2 M phosphate buffer, pH 7.5, 1 μL 1 M DTT and 10 μL 1% Triton X-100. The bioluminescent reaction was initiated in a Glomax 20/20 (Promega, USA) luminometer cuvette by adding 20 μL 20 mM NADPH. Luminescence was measured at 23±1° C.
The maximum luminescence of fractions 1-6 was 24000, 80, 6670, 40, 1300 and 1000 correspondingly (a signal-to-noise ratio of the luminometer, the values were normalised against optical density at 360 nm).

[2] = target: T2, luciferase and hispidin-3-hydroxylase (cold extract of N. nambi) (Neonothopanus nambi, UniProt A0A3G9K5C8); test: Dependence of maximal bioluminescence (Imax) on reagent concentration in the reaction mixture; type: biochemical
T2 construct: an extract comprising the enzymes of the fungal bioluminescent system and free from low-molecular-weight components; from tissue; host or cells: Neonothopanus nambi mycelium, crude cold extract (30000 g supernatant of the homogenate)
Experimental: The concentrated hispidin solution was used to produce dilutions of 1/50, 1/500, 1/5000, 1/50000 in an aqueous solution with 0.1% Triton X-100 and 0.1% formic acid.
The reaction mixture in the bioluminometer cuvette comprised: 100 μL 0.1 M phosphate buffer, pH 7.5, containing 0.1 mM DTT, 4 μL of the cold extract of N. nambi, 1-5 μL of hispidin dilutions. The bioluminescent reaction was activated by adding 4 μL 10 mM NADPH. Bioluminescence was measured at 25° C.
The reaction mixture in the bioluminometer cuvette comprised: 100 μL 0.1 M phosphate buffer, pH 7.5, comprising 0.1 mM DTT, 4 μL of the cold extract of N. nambi, 4 μL 64 μM hispidin solution and various amounts of Triton X-100 detergent. The bioluminescent reaction was activated by adding 4 μL 10 mM NADPH. […] The optimal detergent concentration in the reaction mixture was determined as 0.015 to 0.03%. The maximum detergent concentration at which bioluminescence was observed was 0.5%.
The reaction mixture in the bioluminometer cuvette comprised: 100 μL 0.1 M phosphate buffer, pH 7.5, comprising 0.1 mM DTT, 4 μL of the cold extract of N. nambi, 4 μL […] hispidin solution. The bioluminescent reaction was activated by adding various amounts of NADPH. […] The minimum NADPH concentration which provided detectable bioluminescence was 20 μM.
The reaction mixture in the bioluminometer cuvette comprised: 100 μL 0.1 M phosphate buffer, pH 7.5, comprising various concentrations of DTT, 4 μL of the cold extract of N. nambi, 4 μL 64 μM hispidin solution. The bioluminescent reaction was activated by adding 4 μL 10 mM NADPH. […] The optimal DTT concentration in the reaction mixture was 0.5 to 3 mM. The maximum DTT concentration which provided bioluminescence was 10 mM.

[3] = system: luciferase and hispidin-3-hydroxylase; test: Detection of luciferase and hispidin-3-hydroxylase in fungal cold extracts with hispidin and NAD(P)H; type: biochemical
Experimental: Commercially available hispidin (Sigma-Aldrich, USA) was used for detecting luciferase and hispidin-3-hydroxylase in the cold extracts obtained from the mycelia of Neonothopanus nambi, Mycena citricolor, Panellus stipticus, and Armillaria borealis as described in Example 1.
Hispidin was dissolved in DMSO to a final concentration of 8 mg/ml (32 mM). Then, the obtained concentrated solution was diluted 500-fold by aqueous solution containing 0.1% Triton X-100 and 0.1% formic acid. Hispidin concentration in the obtained working solution was 64 μM.
The reaction mixture in Glomax 20/20 cuvette (Promega, USA) comprised: 100 μL 0.2 M phosphate buffer, pH 7.5, comprising 0.1 mM DTT and 0.1 mM EDTA, 1-5 μL of fungal extract, 4 μL 64 μM hispidin solution. The luminescent reaction was initiated by adding 4 μL 10 mM NADPH.
In a different experiment, the same samples were tested for the presence of luciferase and hispidin-3-hydroxylase activities as described above with the exception that NADH was used (instead of NADPH). In this case, luminescence was 2-3 times lower than when using NADPH.

[4] = system: luciferase; test: Detection of luciferase in microsomal fractions of cold extracts with 3-hydroxyhispidin; type: biochemical; settings: aliquots with 0.006 ng and 0.16 ng of luciferin; microsomal fractions of four fungi
Experimental: 3-hydroxyhispidin was obtained as described in Example 3. The microsomal fractions of the cold extracts of Neonothopanus nambi, Mycena citricolor, Panellus stipticus and Armillaria borealis were used as biological samples. The cold extracts were obtained as described in Example 2. The microsomal fractions were obtained as described in Example 3.
10 μg of 3-hydroxyhispidin were dissolved in 1 mL 50% water-acetonitrile mixture containing 0.1% formic acid.
During the experiment, in each case, the background luminescence of the microsomal fraction was measured in the first place, and then, at 0.7 and 1.55 minutes, 3-hydroxyhispidin solution aliquots were added, which contained 0.006 ng and 0.16 ng of luciferin, correspondingly.

[5] = Stability of 3-hydroxyhispidin; type: physicochemical
[6] = Solubility of 3-hydroxyhispidin; type: physicochemical
[7] = system: fungal bioluminescence; settings: isolated from Pleurotus japonicus; cited from earlier work
[8] = hispidin, NADPH, cold extract of N. nambi
[9] = 0.1 M phosphate buffer pH 7.5, 0.1 mM DTT, NADPH, 25° C.

T2 sequence (A0A3G9K5C8 whole entry): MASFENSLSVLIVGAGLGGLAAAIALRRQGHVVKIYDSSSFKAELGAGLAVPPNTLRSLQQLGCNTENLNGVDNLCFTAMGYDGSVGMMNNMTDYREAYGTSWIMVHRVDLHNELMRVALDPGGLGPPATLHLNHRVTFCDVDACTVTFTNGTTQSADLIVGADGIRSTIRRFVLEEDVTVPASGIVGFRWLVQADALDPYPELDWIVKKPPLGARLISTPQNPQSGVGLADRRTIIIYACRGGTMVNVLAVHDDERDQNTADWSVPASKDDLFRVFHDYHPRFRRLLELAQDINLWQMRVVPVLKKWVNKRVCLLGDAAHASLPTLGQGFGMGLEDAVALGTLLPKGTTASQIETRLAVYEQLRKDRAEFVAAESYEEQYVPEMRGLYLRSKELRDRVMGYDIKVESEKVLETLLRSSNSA
T1 sequence (A0A3G9K5C8 whole entry): as above

Molecule: 3.3-bishispidinyl [Fraction 2]
- maximum luminescence [1]: 80 signal-to-noise ratio of the luminometer

Molecule: O[C@H](CS)[C@H](O)CS (racemic) [DTT, dithiothreitol, reference compound]
- maximum DTT concentration which provided bioluminescence [2, 8]: 10 mM

Molecule: O=c1cc(O)cc(/C=C/c2ccc(O)c(O)c2)o1 (single isomer, unassigned) [Fraction 1, (E)-6-(3,4-dihydroxystyryl)-4-hydroxy-2H-pyran-2-one]
- maximum luminescence [1]: 24000 signal-to-noise ratio of the luminometer
- luminescence of cold extracts after adding hispidin and NADPH ([3]; 4 μL 64 μM hispidin, 4 μL 10 mM NADPH, cold extracts of four fungi): Luminescence was detected in all cases
- hispidin concentration at which detectable luminescence was observed [2, 9]: ≥ 0.002 µM
- optimal hispidin concentration in the reaction mixture [2, 9]: 2.5 µM
- hispidin concentration at which inhibition of the luminescent reaction was observed ([2]; probably substrate inhibition): more than 5 μM

Molecule: O=c1cc(O)cc(/C=C\c2ccc(O)c(O)c2)o1 (single isomer, unassigned) [Fraction 3, (Z)-6-(3,4-dihydroxystyryl)-4-hydroxy-2H-pyran-2-one]
- maximum luminescence [1]: 6670 signal-to-noise ratio of the luminometer

Molecule: O=c1cc(O)cc(/C=C/c2ccc(O)cc2)o1 (single isomer, unassigned) [Fraction 5, (E)-4-hydroxy-6-(4-hydroxystyryl)-2H-pyran-2-one]
- maximum luminescence [1]: 1300 signal-to-noise ratio of the luminometer
- maximum intensity of sample luminescence, times lower as compared to using hispidin ([3]; bisnoryangonin added instead of hispidin): approximately 10 times

Molecule: O=c1cc(O)cc(/C=C\c2ccc(O)cc2)o1 (single isomer, unassigned) [Fraction 6, (Z)-4-hydroxy-6-(4-hydroxystyryl)-2H-pyran-2-one]
- maximum luminescence [1]: 1000 signal-to-noise ratio of the luminometer

Molecule: O=c1oc(/C=C/c2ccc(O)c(O)c2)cc(O)c1O [3-hydroxyhispidin, (E)-6-(3,4-dihydroxystyryl)-3,4-dihydroxy-2H-pyran-2-one]
- luminescence of microsomal fractions after adding 3-hydroxyhispidin [4]: luminescence was detected
- storage time with no activity loss ([5]; lyophilized, −20° C., often no less than 60 days, normally no less than a year): no less than 30 days
- thermal stability ([5]; water solution): can sustain short-term boiling
- stability during chromatography ([5]; water-acetonitrile mixture with formic acid, final concentration 0.1%): shows stability
- solubility in aprotic solvents ([6]; DMSO, acetonitrile, acetone, etc.): readily soluble
- solubility in water ([6]; water): moderately soluble

Molecule: O=c1cc(O)cc(C=Cc2cc(O)c(O)cc2-c2c(O)cc(C=Cc3ccc(O)cc3)oc2=O)o1 [Fraction 4, 3-bisnoryangonyl-14-hispidin]
- maximum luminescence [1]: 40 signal-to-noise ratio of the luminometer

Molecule: CC1=C2C(=C[C@@](C)(CO)[C@@H]2O)C(=O)[C@](C)(O)C12CC2 [illudin S]
- bioluminescent activity [7]: did not show bioluminescent activity

Molecule: Cc1cc2nc3c(=O)[nH]c(=O)nc-3n(C[C@H](O)[C@H](O)[C@H](O)COC3OC(CO)C(O)C3O)c2cc1C (some centres unmarked) [lampteroflavin]
- bioluminescent activity [7]: did not show bioluminescent activity

Molecule: Cc1cc2nc3c(=O)[nH]c(=O)nc-3n(C[C@H](O)[C@H](O)[C@H](O)CO)c2cc1C [riboflavin]
- bioluminescent activity [7]: did not show bioluminescent activity

Molecule: Triton X-100 [reference compound]
- maximum detergent concentration at which bioluminescence was observed [2, 8]: 0.5%

Molecule: nicotinamide adenine dinucleotide phosphate [NADPH, reference compound]
- minimum NADPH concentration which provided detectable bioluminescence ([2]; hispidin, cold extract of N. nambi, pH 7.5): 20 µM

Source: patent US12473582B2, “Method and agents for detecting luciferase activity” (LIGHT BIO, INC., priority 2015, dated 2025)
